Test: TGA of PFD weight loss from coated aerogel, uncoated aerogel and pure PFD
Assay type: physicochemical
Conditions: held at 37° C. for 60 minutes, aerogel-free basis

FC1(F)C(F)(F)C(F)(F)C2(F)C(F)(F)C(F)(F)C(F)(F)C(F)(F)C2(F)C1(F)F (stereo not shown) [pure PFD, perfluorodecalin]
loss of available PFD: 100%

— patent publication US20160228380A1, “IMPREGNANATION OF OXYGEN CARRIER COMPOUNDS INTO CARRIER MATERIALS PROVIDING COMPOSITIONS AND METHODS FOR THE TREATMENT OF WOUNDS AND BURNS” (VIRGINIA COMMONWEALTH UNIVERSITY, priority 2013, published 2016)
